Measurements from patent EP2739628B1.
Like-named read-outs stand apart in the source and are kept apart here.

Conditions: rcm bond

COC(=O)Nc1ccc2c(c1)N[C@@H](C(=O)OC)CC=CC[C@H](NC(=O)OC(C)(C)C)c1nc-2cn1COCC[Si](C)(C)C
ring closure, yield of all isomers (from C=CC[C@H](NC(=O)OC(C)(C)C)c1nc(-c2ccc(NC(=O)OC)cc2N[C@H](CC=C)C(=O)OC)cn1COCC[Si](C)(C)C, Grubbs II, DCE, 40.0 mM, 120.0 °C, 0.33 h): 23%

COC(=O)Nc1ccc2c(c1)NC(=O)C/C=C/C[C@H](NC(=O)OC(C)(C)C)c1cc-2ccn1
ring closure, yield of all isomers (from C=CCC(=O)Nc1cc(NC(=O)OC)ccc1-c1ccnc([C@H](CC=C)NC(=O)OC(C)(C)C)c1, Grubbs II, DCM, 3.99 mM, 45.0 °C, 19.0 h): 26%

COC(=O)Nc1ccc2c(c1)NC(=O)[C@H](C)C=CC[C@H](NC(=O)OC(C)(C)C)c1nc-2cn1COCC[Si](C)(C)C
ring closure, yield of all isomers (from C=CC[C@H](NC(=O)OC(C)(C)C)c1nc(-c2ccc(NC(=O)OC)cc2NC(=O)[C@H](C)C=C)cn1COCC[Si](C)(C)C, Grubbs 2nd generation catalyst (with pTsOH monohydrate), dichloromethane, 9.73 mM, 40.0 °C, 21.5 h): 41%

CCOC(=O)C1C/C=C/C[C@H](NC(=O)OC(C)(C)C)c2cc(ccn2)-c2ccc(NC(=O)OC)cc2N1 (stereo partly shown)
ring closure, yield of all isomers (from C=CCC(Nc1cc(NC(=O)OC)ccc1-c1ccnc([C@H](CC=C)NC(=O)OC(C)(C)C)c1)C(=O)OCC, Grubbs II): 47%
